Results as given in PMC6917776, “Discovery of a chemical probe for PRDM9” (Nature Communications, 2019).
Where two headings read alike, the source gives them in different places.

Test: CelltiterGlo viability cell assay
Assay type: cell-based
Conditions: human
How it was run: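 Luminescent ATP-based viability (CelltiterGlo) was measured after 3 or 6 days of treatment at increasing concentrations from 0.01 μM up to 30 μM, with values expressed relative to DMSO-treated cells.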

[1] = HCC1143 breast cancer cells, HCC1143, 6 day, read-out: viability Replicate 3
[2] = HCC1143 breast cancer cells, HCC1143, 6 day, read-out: viability Average
[3] = HCC1143 breast cancer cells, HCC1143, 6 day, read-out: viability Replicate 1
[4] = HCC1143 breast cancer cells, HCC1143, 6 day, read-out: viability Replicate 2
[5] = HCC1806 breast cancer cells, HCC1806, 3 day, read-out: viability Average
[6] = HCC1806 breast cancer cells, HCC1806, 3 day, read-out: viability Replicate 1
[7] = HCC1806 breast cancer cells, HCC1806, 3 day, read-out: viability Replicate 2
[8] = HCC1806 breast cancer cells, HCC1806, 3 day, read-out: viability Replicate 3
[9] = HCC1806 breast cancer cells, HCC1806, 6 day, read-out: viability Average
[10] = HCC1806 breast cancer cells, HCC1806, 6 day, read-out: viability Replicate 1
[11] = HCC1806 breast cancer cells, HCC1806, 6 day, read-out: viability Replicate 2
[12] = HCC1806 breast cancer cells, HCC1806, 6 day, read-out: viability Replicate 3
[13] = HCC1806 cells, HCC1806, 3 day, read-out: viability Average
[14] = HCC1806 cells, HCC1806, 3 day, read-out: viability Replicate 1
[15] = HCC1806 cells, HCC1806, 3 day, read-out: viability Replicate 2
[16] = HCC1806 cells, HCC1806, 3 day, read-out: viability Replicate 3

COc1cc(OC)cc(-c2noc(N3CCN(C)C4(CCN(c5ccnc(C)c5)CC4)C3)n2)c1 [MRK-740]
viability at 6 day, 0.03 µM [1]: 104% | viability at 6 day, 0.1 µM [2]: 105% | viability at 6 day, 0.1 µM [3]: 103% | viability at 6 day, 0.1 µM [4]: 102% | viability at 6 day, 0.1 µM [1]: 111% | viability at 6 day, 0.3 µM [2]: 110% | viability at 6 day, 0.3 µM [3]: 109% | viability at 6 day, 0.3 µM [4]: 111% | viability at 6 day, 0.3 µM [1]: 111% | viability at 6 day, 1 µM [2]: 112% | viability at 6 day, 1 µM [3]: 114% | viability at 6 day, 1 µM [4]: 108% | viability at 6 day, 1 µM [1]: 113% | viability at 6 day, 3 µM [2]: 108% | viability at 6 day, 3 µM [3]: 106% | viability at 6 day, 3 µM [4]: 109% | viability at 6 day, 3 µM [1]: 110% | viability at 6 day, 9.5 µM [2]: 79.4% | viability at 6 day, 9.5 µM [3]: 79.5% | viability at 6 day, 9.5 µM [4]: 78.6% | viability at 6 day, 9.5 µM [1]: 80.2% | viability at 6 day, 30 µM [2]: 18.9% | viability at 6 day, 30 µM [3]: 20.9% | viability at 6 day, 30 µM [4]: 18.4% | viability at 6 day, 30 µM [1]: 17.3% | viability at 3 day, 0.1 µM (HCC1143 cells, HCC1143, 3 day, read-out: viability Average): 93.6% | viability at 3 day, 0.1 µM (HCC1143 cells, HCC1143, 3 day, read-out: viability Replicate 1): 95.6% | viability at 3 day, 0.1 µM (HCC1143 cells, HCC1143, 3 day, read-out: viability Replicate 2): 90.7% | viability at 3 day, 0.1 µM (HCC1143 cells, HCC1143, 3 day, read-out: viability Replicate 3): 94.6% | viability at 3 day, 0.01 µM [5]: 107% | viability at 3 day, 0.01 µM [6]: 103% | viability at 3 day, 0.01 µM [7]: 110% | viability at 3 day, 0.01 µM [8]: 107% | viability at 3 day, 0.03 µM [5]: 102% | viability at 3 day, 0.03 µM [6]: 99.9% | viability at 3 day, 0.03 µM [7]: 101% | viability at 3 day, 0.03 µM [8]: 104% | viability at 3 day, 1 µM [5]: 103% | viability at 3 day, 1 µM [6]: 104% | viability at 3 day, 1 µM [7]: 111% | viability at 3 day, 1 µM [8]: 94.5% | viability at 3 day, 3 µM [5]: 89.8% | viability at 3 day, 3 µM [6]: 92.2% | viability at 3 day, 3 µM [7]: 107% | viability at 3 day, 3 µM [8]: 70.5% | viability at 3 day, 9.5 µM [5]: 37.6% | viability at 3 day, 9.5 µM [6]: 40.7% | viability at 3 day, 9.5 µM [7]: 51.7% | viability at 3 day, 9.5 µM [8]: 20.5% | viability at 3 day, 30 µM [5]: 11.6% | viability at 3 day, 30 µM [6]: 13.2% | viability at 3 day, 30 µM [7]: 14.9% | viability at 3 day, 30 µM [8]: 6.61% | viability at 6 day, 0.01 µM [9]: 102% | viability at 6 day, 0.01 µM [10]: 107% | viability at 6 day, 0.01 µM [11]: 100% | viability at 6 day, 0.01 µM [12]: 99.6% | viability at 6 day, 0.03 µM [9]: 106% | viability at 6 day, 0.03 µM [10]: 111% | viability at 6 day, 0.03 µM [11]: 101% | viability at 6 day, 0.03 µM [12]: 106% | viability at 6 day, 0.1 µM [9]: 106% | viability at 6 day, 0.1 µM [10]: 107% | viability at 6 day, 0.1 µM [11]: 106% | viability at 6 day, 0.1 µM [12]: 106% | viability at 6 day, 0.3 µM [9]: 109% | viability at 6 day, 0.3 µM [10]: 113% | viability at 6 day, 0.3 µM [11]: 106% | viability at 6 day, 0.3 µM [12]: 108% | viability at 6 day, 1 µM [9]: 103% | viability at 6 day, 1 µM [10]: 102% | viability at 6 day, 1 µM [11]: 101% | viability at 6 day, 1 µM [12]: 107% | viability at 6 day, 3 µM [9]: 63.9% | viability at 6 day, 3 µM [10]: 63.2% | viability at 6 day, 3 µM [11]: 58.6% | viability at 6 day, 3 µM [12]: 69.8% | viability at 6 day, 9.5 µM [9]: 24.9% | viability at 6 day, 9.5 µM [10]: 23.5% | viability at 6 day, 9.5 µM [11]: 25% | viability at 6 day, 9.5 µM [12]: 26.3% | viability at 6 day, 30 µM [9]: 4.91% | viability at 6 day, 30 µM [10]: 5.1% | viability at 6 day, 30 µM [11]: 5.11% | viability at 6 day, 30 µM [12]: 4.53% | viability at 3 day, 0.1 µM [13]: 110% | viability at 3 day, 0.1 µM [14]: 122% | viability at 3 day, 0.1 µM [15]: 110% | viability at 3 day, 0.1 µM [16]: 97.6% | viability at 3 day, 0.3 µM [13]: 106% | viability at 3 day, 0.3 µM [14]: 109% | viability at 3 day, 0.3 µM [15]: 108% | viability at 3 day, 0.3 µM [16]: 101% | viability at 3 day, 0.01 µM (MDA-MB-436 breast cancer cells, MDA MB436, 3 day, read-out: viability Average): 104% | viability at 3 day, 0.01 µM (MDA-MB-436 breast cancer cells, MDA MB436, 3 day, read-out: viability Replicate 1): 123%
